Key:
[1] = system: PRKACA-PRKAR2A interaction (SmBiT-PRKACA / LgBiT-PRKAR2A), protein kinase A; design: NanoLuc complementation counter-screen in cell extract, PRKACA with PRKAR2A, loss of luminescence, detects NanoLuc interference; conditions: counter-screen for NanoLuc interference; 0.5 h, 20 µM; inhibitor
Protocol: In the screens described here, the lysate obtained from a single 15 cm plate was used for 2.5 384-well assay plates. NanoLuc substrate (furimazine) (Promega, N1110) was diluted 1000-fold in passive lysis buffer (Promega, E1941) and added 1:1 to the lysate. Screening libraries were purchased from Asinex[40] and ApexBio (FDA-approved Drug Library, L1021). Compounds were dispensed using an Echo acoustic dispenser and tested at a final concentration of 20 µM in a total assay volume of 20 μl in 384-well plate format. DMSO was added to each well at a final concentration of 0.2% (v/v) and wells containing only DMSO were used as negative control. After 30 min incubation at room temperature, luminescence was measured on a Tecan M1000 multi-mode plate reader. Raw luminescence reads from each well on each plate were normalized to the median luminescence signal for that plate. […] After plate normalization the robust SSMD (SSMD*) was calculated as described elsewhere. […] The interaction between PRKACA and PRKAR2A, which are the catalytic and regulatory subunits of human protein kinase A (PKA) respectively, has previously been measured using a NanoLuc complementation assay. […] The effects of the four compounds identified from the Asinex library were assessed in the control PKA-based NanoLuc assay. […]

TBLR1 = target: T1, TBLR1 (Homo sapiens, UniProt Q9BZK7); test: MeCP2 peptide SPOT array probed with recombinant HIS6-tagged TBLR1; format: binding; conditions: recombinant HIS6-tagged TBLR1 2 µM
T1 sequence (Q9BZK7 1-514): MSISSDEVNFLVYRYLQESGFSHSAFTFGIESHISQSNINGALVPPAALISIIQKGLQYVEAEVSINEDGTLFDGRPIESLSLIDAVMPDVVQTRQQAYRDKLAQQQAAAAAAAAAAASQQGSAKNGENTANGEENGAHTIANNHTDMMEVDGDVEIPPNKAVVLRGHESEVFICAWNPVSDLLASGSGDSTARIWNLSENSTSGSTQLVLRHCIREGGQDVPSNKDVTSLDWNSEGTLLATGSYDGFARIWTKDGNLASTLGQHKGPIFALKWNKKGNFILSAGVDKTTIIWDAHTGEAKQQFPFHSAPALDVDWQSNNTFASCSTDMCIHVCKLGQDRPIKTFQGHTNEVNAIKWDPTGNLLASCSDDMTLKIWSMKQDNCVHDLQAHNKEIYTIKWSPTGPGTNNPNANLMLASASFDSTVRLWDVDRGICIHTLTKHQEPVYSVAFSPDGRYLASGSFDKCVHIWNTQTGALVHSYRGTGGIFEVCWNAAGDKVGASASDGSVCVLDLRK
Protocol: The Z-factor is a statistic frequently used to assess the suitability of an assay for high throughput screening. We calculated the Z-factor of our assay in 384-well plate format using a short 12 residue MeCP2 NID derived-peptide variant as positive control and DMSO as negative control.
Western blotting was performed using antibodies against NanoLuc (Promega), MeCP2 (Sigma, M6818) and Sin3A (Abcam, Ab3479). […] The biotin at the N-terminus of these peptides was not relevant to the experiments in this work. […] The array membrane was incubated with recombinant HIS6‐tagged TBLR1 (2 µM) and immunodetection was performed with anti-HIS antibody (Sigma, H1029). Uniform synthesis efficiency across the array was ascertained by UV absorption. […] Note the shorter N-terminus and longer C-terminus of this peptide compared to the sequences used on the SPOT array. UMT026-2 was used at 50 µM when calculating the Z-factor[39].
The wild-type amino acids at these positions (Pro, Ile, Lys and Lys) make directs contacts with TBLR1. Arrows denote spots with increased binding and red dots indicate the wild-type amino acid.

[2] = target: T2, MeCP2-TBL1 interaction (MeCP2-SmBiT / TBL1-LgBiT) (Mus musculus, UniProt Q9QXE7); test: MeCP2-TBL1 NanoLuc luciferase complementation assay (cell-free, extracts of transfected HEK293 cells); format: binding, human; conditions: dose response 0.3–60 μM, triplicate, 30 min, luminescence normalized to DMSO; read-out: IC50, inhibition of MeCP2-TBL1 luminescence signal
T2 construct: expressed in transfected cells; crude lysate used as a cell-free assay
T2 sequence (Q9QXE7 166-527): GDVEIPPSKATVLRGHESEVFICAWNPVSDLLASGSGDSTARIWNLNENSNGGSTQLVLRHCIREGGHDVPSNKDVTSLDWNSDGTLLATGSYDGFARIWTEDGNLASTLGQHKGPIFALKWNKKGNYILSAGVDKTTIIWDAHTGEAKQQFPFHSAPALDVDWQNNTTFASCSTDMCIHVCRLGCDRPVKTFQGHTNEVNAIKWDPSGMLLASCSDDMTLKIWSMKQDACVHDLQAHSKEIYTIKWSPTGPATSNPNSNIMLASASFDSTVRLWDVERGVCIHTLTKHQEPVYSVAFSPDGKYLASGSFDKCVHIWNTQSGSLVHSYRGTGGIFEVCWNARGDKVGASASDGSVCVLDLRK
Summary of the method: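 Cell-free split NanoLuc: lysate of HEK293 cells co-expressing the MeCP2 C-terminal half-SmBiT and TBL1 WD domain-LgBiT, mixed 1:1 with furimazine. After 30 min at room temperature, luminescence was plate-median normalized.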

Row | Inh (PKA) [1] [%] | TBL1/TBLR1 binding on peptide SPOT array relative to wild type (TBLR1) | IC50 [2] [µM] | Compound
1 | 0.7412 | – | – | C=C1C(=O)O[C@@H]2[C@H]3O[C@]3(C)CC/C=C(\C)CC[C@@H]12 [UM0142841:01, Parthenolide]
2 | – | stronger TBL1/TBLR1 binder | ~40 | Ac-ETVLPIYKRKTR-NH2 [K304Y mutant peptide]

Source: PMC9995496, “A screen for MeCP2-TBL1 interaction inhibitors using a luminescence-based assay” (Scientific Reports, 2023)
